Data from US8562946B2, “Miniaturized 62Zn/62Cu generator for high concentration clinical delivery of 62Cu kit formulation for the facile preparation of radiolabeled Cu-bis(thiosemicarbazone) compounds” (Proportional Technologies, Inc., priority 2003, dated 2013).
Where two headings read alike, the source gives them in different places.

Key:
[1] = octanol/water partition coefficients of Cu bis(thiosemicarbazone) complexes; type: physicochemical
[2] = cited from earlier work
[3] = ligand solubility (DMSO, water); type: physicochemical; settings: crystalline form dissolved in DMSO
Description: Studies evaluating the compatibility of the bis(thiosemicarbazone) ligands with lyophilization based kit synthesis were conducted using H2PTSM as a model compound. The first of these studies evaluated the feasibility of ligand lyophilization and rapid reconstitution. The entire class of bis(thiosemicarbazone) compounds is very insoluble in water. Consequently, in order to prepare a principally aqueous solution for lyophilization, the crystalline form of the H2PTSM was dissolved at the maximum concentration in dimethylsulfoxide (DMSO), (200 mg/mL H2PTSM). […] To minimize the possibility of ligand precipitation, the DMSO solution was added to hot water (90° C.) during rapid stifling. This solution was then cooled to room temperature and assayed for potency using a spectrophotometer. The very small amount of DMSO in the aqueous solution is expected to sublimate along with water during lyophilization. In order to ensure maximum potency after lyophilization, an excipient (either dextrose [6.7 mg/mL], trehalose [6.7 mg/mL] or sodium acetate [5.4 mg/mL]) was added. The purpose of the excipient was to prevent the ligand from crystallizing out by maintaining dispersion in the cake formed during lyophilization. The sodium acetate performed the added function of buffering the final product to acceptable pH upon addition of 0.1-0.15 mL of ^62Zn/^62Cu generator eluted solution. […]

[4] = in humans; cited from earlier work
[5] = most animal species other than humans; cited from earlier work

CCC(C=NNC(N)=S)=NNC(N)=S.[Cu] [ETS, ^62Cu ethylglyoxal bis(thiosemicarbazone)]
log P ([1]; octanol/water, from measured partition coefficients P of the corresponding 67Cu-complexes): 1.35 | binding to blood plasma [2]: low reversible binding

CNC(=S)NN=C(C)C(C)=NNC(=S)NC [H2ATSM, diacetyl-bis(N4-methylthiosemicarbazone)]
difference in octanol/water partition coefficients ([1]; H2ATSM vs H2PTSM (Table 2)): 0.34

CNC(=S)NN=CC(C)=NNC(=S)NC [H2PTSM, pyruvaldehyde bis(N4-methylthiosemicarbazone)]
maximum concentration in dimethylsulfoxide (DMSO) [3]: 200 mg/mL

CN=C([S-])N/N=C/C(C)=N/NC([S-])=NC.[Cu+2] [PTSM, Copper(II) ^62Cu pyruvaldehyde bis(N4-methylthiosemicarbazone)]
binding to blood [4]: significant binding | binding to blood [5]: low binding
